Read-outs that look alike come from different tables or passages of the source.
Target: Human Factor D (Homo sapiens (Human), UniProt P00746)
Experiment: Human Factor D Assay
Type: biochemical
Experimental: Human Factor D (purified from human serum, Complement Technology, Inc.) at 80 nM final concentration was incubated with test compound at various concentrations for 5 minutes at room temperature in 50 mM Tris, 1M NaCl, pH 7.5. A synthetic substrate Z-L-Lys-SBzl and DTNB (Ellman's reagent) are added to final concentrations of 100 μM each. […] IC50 values are calculated by nonlinear regression of complement Factor D reaction rates as a function of test compound concentration.

[1] = Human Factor D 80 nM, substrate Z-L-Lys-SBzl, read-out: IC50

Human Factor D, sequence (P00746 26-253): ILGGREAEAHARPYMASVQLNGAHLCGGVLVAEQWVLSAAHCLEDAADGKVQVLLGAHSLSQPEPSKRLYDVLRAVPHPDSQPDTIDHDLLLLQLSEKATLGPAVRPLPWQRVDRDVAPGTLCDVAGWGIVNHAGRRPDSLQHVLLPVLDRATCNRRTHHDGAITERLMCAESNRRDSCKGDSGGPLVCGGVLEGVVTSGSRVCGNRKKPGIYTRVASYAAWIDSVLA

## COc1ncc(-c2ccc3c(c2)c(C(C)=O)cn3CC(=O)N2C[C@H](F)C[C@H]2C(=O)Nc2cccc(-c3ccccc3Cl)c2F)cn1 [Compound 27, (2S,4R)-1-(2-(3-acetyl-5-(2-methoxypyrimidin-5-yl)-1H-indol-1-yl)acetyl)-N-(2′-chloro-2-fluorobiphenyl-3-yl)-4-fluoropyrrolidine-2-carboxamide]
[1]
  IC50: < 1 µM

## CC(=O)c1cn(CC(=O)N2C[C@H](F)C[C@H]2C(=O)Nc2cccc(-c3ccccc3Cl)c2F)c2ccc(C3=CCN(C(C)=O)CC3)cc12 [Compound 28, (2S,4R)-1-(2-(3-Acetyl-5-(1-acetyl-1,2,3,6-tetrahydropyridin-4-yl)-1H-indol-1-yl)acetyl)-N-(2′-chloro-2-fluoro-[1,1′-biphenyl]-3-yl)-4-fluoropyrrolidine-2-carboxamide]
[1]
  IC50: < 1 µM

## COc1ncc(-c2ccc3c(c2)c(C(N)=O)nn3CC(=O)N2C[C@H](F)C[C@H]2C(=O)Nc2cccc(-c3ccccc3Cl)c2F)cn1 [Compound 29, 1-(2-((2S,4R)-2-(2′-chloro-2-fluorobiphenyl-3-ylcarbamoyl)-4-fluoropyrrolidin-1-yl)-2-oxoethyl)-5-(2-methoxypyrimidin-5-yl)-1H-indazole-3-carboxamide]
[1]
  IC50: < 1 µM

## COc1ncc(-c2ccc3c(c2)c(C(N)=O)nn3CC(=O)N2C[C@H](F)C[C@H]2C(=O)Nc2cccc(Cl)n2)cn1 [Compound 30, 1-(2-((2S,4R)-2-(6-chloropyridin-2-ylcarbamoyl)-4-fluoropyrrolidin-1-yl)-2-oxoethyl)-5-(2-methoxypyrimidin-5-yl)-1H-indazole-3-carboxamide]
[1]
  IC50: < 1 µM

## CC(=O)c1cn(CC(=O)N2C[C@H](F)C[C@H]2C(=O)Nc2cccc(-c3ccccc3Cl)c2F)c2ccc(N3CCN(c4ncccn4)CC3)cc12 [Compound 31, (2S,4R)-1-(2-(3-acetyl-5-(4-(pyrimidin-2-yl)piperazin-1-yl)-1H-indol-1-yl)acetyl)-N-(2′-chloro-2-fluorobiphenyl-3-yl)-4-fluoropyrrolidine-2-carboxamide]
[1]
  IC50: < 1 µM

## CC(=O)c1cn(CC(=O)N2C[C@H](F)C[C@H]2C(=O)Nc2cccc(-c3ccccc3Cl)c2F)c2ccc(N3CCN(c4ncc(F)cn4)CC3)cc12 [Compound 32, (2S,4R)-1-(2-(3-acetyl-5-(4-(5-fluoropyrimidin-2-yl)piperazin-1-yl)-1H-indol-1-yl)acetyl)-N-(2′-chloro-2-fluorobiphenyl-3-yl)-4-fluoropyrrolidine-2-carboxamide]
[1]
  IC50: < 1 µM

## CC(=O)c1cn(CC(=O)N2C[C@H](F)C[C@H]2C(=O)Nc2cccc(-c3ccccc3Cl)c2F)c2ccc(N3CCN(S(C)(=O)=O)CC3)cc12 [Compound 33, (2S,4R)-1-(2-(3-Acetyl-5-(4-(methylsulfonyl)piperazin-1-yl)-1H-indol-1-yl)acetyl)-N-(2′-chloro-2-fluoro-[1,1′-biphenyl]-3-yl)-4-fluoropyrrolidine-2-carboxamide]
[1]
  IC50: < 1 µM

## CC(=O)c1cn(CC(=O)N2C[C@H](F)C[C@H]2C(=O)Nc2ccccc2-c2nc3ccccc3s2)c2ccc(-c3ccnnc3)cc12 [Compound 34, (2S,4R)-1-(2-(3-acetyl-5-(pyridazin-4-yl)-1H-indol-1-yl)acetyl)-N-(2-(benzo[d]thiazol-2-yl)phenyl)-4-fluoropyrrolidine-2-carboxamide]
  IC50: > 10 µM

## CC(=O)c1cn(CC(=O)N2C[C@H](F)C[C@H]2C(=O)NCc2ccccn2)c2ccc(-c3ccnnc3)cc12 [Compound 38, (2S,4R)-1-(2-(3-acetyl-5-(pyridazin-4-yl)-1H-indol-1-yl)acetyl)-4-fluoro-N-(pyridin-2-ylmethyl) pyrrolidine-2-carboxamide]
[1]
  IC50: < 1 µM

## NC(=O)c1nn(CC(=O)N2C[C@H](F)C[C@H]2C(=O)NCc2cccnc2)c2ccc(-c3ccnnc3)cc12 [Compound 39, 1-(2-((2S,4R)-4-fluoro-2-(pyridin-3-ylmethylcarbamoyl)pyrrolidin-1-yl)-2-oxoethyl)-5-(pyridazin-4-yl)-1H-indazole-3-carboxamide]
  IC50: 1 to 10 µM

## NC(=O)c1nn(CC(=O)N2C[C@H](F)C[C@H]2C(=O)Nc2ccccc2-c2nc3ccccc3s2)c2ccc(-c3ccnnc3)cc12 [Compound 41, 1-(2-((2S,4R)-2-(2-(benzo[d]thiazol-2-yl)phenylcarbamoyl)-4-fluoropyrrolidin-1-yl)-2-oxoethyl)-5-(pyridazin-4-yl)-1H-indazole-3-carboxamide]
[1]
  IC50: > 10 µM

## CC(=O)c1cn(CC(=O)N2C[C@H](F)C[C@H]2C(=O)Nc2noc3cc(C(F)(F)F)ccc23)c2ccc(-c3ccnnc3)cc12 [Compound 42, (2S,4R)-1-(2-(3-acetyl-5-(pyridazin-4-yl)-1H-indol-1-yl)acetyl)-4-fluoro-N-(6-(trifluoromethyl)benzo[d]isoxazol-3-yl)pyrrolidine-2-carboxamide]
[1]
  IC50: > 10 µM

## CC(=O)c1cn(CC(=O)N2C[C@H](F)C[C@H]2C(=O)NCc2cccc(Cl)c2)c2ccc(-c3ccnnc3)cc12 [Compound 44, (2S,4R)-1-(2-(3-acetyl-5-(pyridazin-4-yl)-1H-indol-1-yl)acetyl)-N-(3-chlorobenzyl)-4-fluoropyrrolidine-2-carboxamide]
[1]
  IC50: < 1 µM

## NC(=O)c1nn(CC(=O)N2C[C@H](F)C[C@H]2C(=O)NCc2cccc(Cl)c2)c2ccc(-c3ccnnc3)cc12 [Compound 45, 1-(2-((2S,4R)-2-(3-chlorobenzylcarbamoyl)-4-fluoropyrrolidin-1-yl)-2-oxoethyl)-5-(pyridazin-4-yl)-1H-indazole-3-carboxamide]
[1]
  IC50: < 1 µM

## CC(=O)c1cn(CC(=O)N2C[C@H](F)C[C@H]2C(=O)NCc2cc(F)cc(Cl)c2)c2ccc(-c3ccnnc3)cc12 [Compound 46, (2S,4R)-1-(2-(3-acetyl-5-(pyridazin-4-yl)-1H-indol-1-yl)acetyl)-N-(3-chloro-5-fluorobenzyl)-4-fluoropyrrolidine-2-carboxamide]
[1]
  IC50: < 1 µM

## NC(=O)c1nn(CC(=O)N2C[C@H](F)C[C@H]2C(=O)Nc2cccnc2)c2ccc(-c3ccnnc3)cc12 [Compound 47, 1-(2-((2S,4R)-4-fluoro-2-(pyridin-3-ylcarbamoyl)pyrrolidin-1-yl)-2-oxoethyl)-5-(pyridazin-4-yl)-1H-indazole-3-carboxamide]
  IC50: > 10 µM

## CCN1Cc2ccc(NC(=O)[C@@H]3C[C@@H](F)CN3C(=O)Cn3nc(C(N)=O)c4cc(-c5ccnnc5)ccc43)cc2C1=O [Compound 48, 1-(2-((2S,4R)-2-(2-ethyl-3-oxoisoindolin-5-ylcarbamoyl)-4-fluoropyrrolidin-1-yl)-2-oxoethyl)-5-(pyridazin-4-yl)-1H-indazole-3-carboxamide]
[1]
  IC50: > 10 µM

## CCN1Cc2ccc(NC(=O)[C@@H]3C[C@@H](F)CN3C(=O)Cn3cc(C(C)=O)c4cc(-c5ccnnc5)ccc43)cc2C1=O [Compound 49, (2S,4R)-1-(2-(3-acetyl-5-(pyridazin-4-yl)-1H-indol-1-yl)acetyl)-N-(2-ethyl-3-oxoisoindolin-5-yl)-4-fluoropyrrolidine-2-carboxamide]
  IC50: 1 to 10 µM

## NC(=O)c1nn(CC(=O)N2C[C@H](F)C[C@H]2C(=O)Nc2ccc3ncsc3c2)c2ccc(-c3ccnnc3)cc12 [Compound 50, 1-(2-((2S,4R)-2-(benzo[d]thiazol-6-ylcarbamoyl)-4-fluoropyrrolidin-1-yl)-2-oxoethyl)-5-(pyridazin-4-yl)-1H-indazole-3-carboxamide]
[1]
  IC50: > 10 µM

## NC(=O)c1nn(CC(=O)N2C[C@H](F)C[C@H]2C(=O)N[C@@H]2CCC[C@@H]2OCc2ccccc2)c2ccc(-c3ccnnc3)cc12 [Compound 51, 1-(2-((2S,4R)-2-((1R,2S)-2-(benzyloxy)cyclopentyl-carbamoyl)-4-fluoropyrrolidin-1-yl)-2-oxoethyl)-5-(pyridazin-4-yl)-1H-indazole-3-carboxamide]
[1]
  IC50: > 10 µM

## NC(=O)c1nn(CC(=O)N2C[C@H](F)C[C@H]2C(=O)NCc2nc3ccccc3s2)c2ccc(-c3ccnnc3)cc12 [Compound 52, 1-(2-((2S,4R)-2-(benzo[d]thiazol-2-ylmethylcarbamoyl)-4-fluoropyrrolidin-1-yl)-2-oxoethyl)-5-(pyridazin-4-yl)-1H-indazole-3-carboxamide]
[1]
  IC50: > 10 µM

## CC(=O)c1cn(CC(=O)N2C[C@H](F)C[C@H]2C(=O)Nc2nc(-c3ccc4c(c3)CCCC4)cs2)c2ccc(-c3ccnnc3)cc12 [Compound 54, (2S,4R)-1-(2-(3-acetyl-5-(pyridazin-4-yl)-1H-indol-1-yl)acetyl)-4-fluoro-N-(4-(5,6,7,8-tetrahydro-naphthalen-2-yl)thiazol-2-yl)pyrrolidine-2-carboxamide]
[1]
  IC50: > 10 µM

## NC(=O)c1nn(CC(=O)N2C[C@H](F)C[C@H]2C(=O)Nc2nc(-c3ccc4c(c3)CCCC4)cs2)c2ccc(-c3ccnnc3)cc12 [Compound 55, 1-(2-((2S,4R)-4-fluoro-2-(4-(5,6,7,8-tetrahydro-naphthalen-2-yl)thiazol-2-ylcarbamoyl)pyrrolidin-1-yl)-2-oxoethyl)-5-(pyridazin-4-yl)-1H-indazole-3-carboxamide]
[1]
  IC50: > 10 µM

## CC(=O)c1cn(CC(=O)N2C[C@H](F)C[C@H]2C(=O)Nc2nc(-c3c(C)nc4sccn34)cs2)c2ccc(-c3ccnnc3)cc12 [Compound 57]
[1]
  IC50: > 10 µM

## Cc1nc2sccn2c1-c1csc(NC(=O)[C@@H]2C[C@@H](F)CN2C(=O)Cn2nc(C(N)=O)c3cc(-c4ccnnc4)ccc32)n1 [Compound 58, 1-(2-((2S,4R)-4-fluoro-2-(4-(6-methylimidazo[2,1-b]thiazol-5-yl)thiazol-2-ylcarbamoyl)pyrrolidin-1-yl)-2-oxoethyl)-5-(pyridazin-4-yl)-1H-indazole-3-carboxamide]
[1]
  IC50: > 10 µM

## CC(=O)c1cn(CC(=O)N2C[C@H](F)C[C@H]2C(=O)NCc2cccnc2)c2ccc(-c3ccnnc3)cc12 [Compound 59, (2S,4R)-1-(2-(3-acetyl-5-(pyridazin-4-yl)-1H-indol-1-yl)acetyl)-4-fluoro-N-(pyridin-3-ylmethyl) pyrrolidine-2-carboxamide]
  IC50: 1 to 10 µM

## CC(=O)c1cn(CC(=O)N2C[C@H](F)C[C@H]2C(=O)Nc2ccc(CNC(=O)OCC3c4ccccc4-c4ccccc43)cc2)c2ccc(-c3ccnnc3)cc12 [Compound 61]
[1]
  IC50: > 10 µM

From patent US10287301B2 (Achillion Pharmaceuticals, Inc., priority 2015, dated 2019)
